Results from ChEMBL document CHEMBL1125751, “On the optimization of hydrophobic and hydrophilic substituent interactions of 2,4-diamino-5-(substituted-benzyl)pyrimidines with dihydrofolate reductase” (J Med Chem, 1991).

Columns and labels:
Dihydrofolate reductase = molecular target: T1, Dihydrofolate reductase (Gallus gallus, UniProt P00378); assay: Compound was evaluated for inhibitory activity against chicken dihydrofolate reductase; settings: read-out: Log 1/Ki (converted)
T1 sequence (P00378 whole entry): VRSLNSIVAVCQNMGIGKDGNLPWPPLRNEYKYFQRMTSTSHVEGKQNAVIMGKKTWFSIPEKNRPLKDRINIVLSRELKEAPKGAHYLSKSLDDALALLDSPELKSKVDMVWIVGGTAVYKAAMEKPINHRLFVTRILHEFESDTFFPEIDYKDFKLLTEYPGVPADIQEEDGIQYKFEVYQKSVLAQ

[1] = (§1) Selectivity index against Escherichia coli DHFR.; format: functional
[2] = (§2) Selectivity index against Lactobacillus casei DHFR.; format: functional
[3] = molecular target: T2, Dihydrofolate reductase (Homo sapiens) (UniProt P00374); assay: as §1; format: functional
T2 sequence (whole entry): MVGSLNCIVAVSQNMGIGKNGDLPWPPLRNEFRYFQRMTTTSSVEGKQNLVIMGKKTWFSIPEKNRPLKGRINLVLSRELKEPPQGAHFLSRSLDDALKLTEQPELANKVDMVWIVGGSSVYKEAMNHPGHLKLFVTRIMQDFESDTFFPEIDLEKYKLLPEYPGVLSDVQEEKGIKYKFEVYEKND

[4] = molecular target: T2, Dihydrofolate reductase (Homo sapiens); assay: as §2; format: functional

Row | Ki (Dihydrofolate reductase) [µM] | SI [3] | SI [4] | Structure (SMILES) | SI [1] | SI [2]
1 | 708 | – | – | CCc1cc(Cc2cnc(N)nc2N)cc(NC(C)=O)c1CO | 4.87 | 3.36
2 | – | 4.28 | 3.13 | CCc1cc(Cc2cnc(N)nc2N)cc(CO)c1CO | – | –
